Targets include OPRM1 (Homo sapiens, UniProt P35372); OPRD1 (Homo sapiens, UniProt P41143); HTR2A (Homo sapiens, UniProt P28223).
What all share (assay): Eurofins DiscoverX SAFETYscan off-target panel
Holding throughout (format): cell-based

The target in a further assay is T1, ADRA2A (Homo sapiens, UniProt P08913).
T1 sequence (P08913 1-465): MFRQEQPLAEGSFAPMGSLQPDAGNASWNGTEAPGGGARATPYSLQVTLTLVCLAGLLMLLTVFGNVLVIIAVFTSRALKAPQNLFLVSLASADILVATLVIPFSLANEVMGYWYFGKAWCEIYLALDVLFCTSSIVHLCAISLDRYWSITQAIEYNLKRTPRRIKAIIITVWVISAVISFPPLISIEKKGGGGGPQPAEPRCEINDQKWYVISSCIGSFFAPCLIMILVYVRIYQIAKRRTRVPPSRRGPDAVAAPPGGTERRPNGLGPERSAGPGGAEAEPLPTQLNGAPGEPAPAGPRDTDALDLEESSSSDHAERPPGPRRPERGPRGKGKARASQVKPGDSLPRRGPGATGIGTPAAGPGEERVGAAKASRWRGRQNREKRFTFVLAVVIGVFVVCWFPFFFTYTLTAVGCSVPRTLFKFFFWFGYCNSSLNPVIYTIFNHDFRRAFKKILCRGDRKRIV

The next assay deals with T2, androgen receptor (AR) (Homo sapiens, UniProt P10275).
T2 sequence (P10275 1-920): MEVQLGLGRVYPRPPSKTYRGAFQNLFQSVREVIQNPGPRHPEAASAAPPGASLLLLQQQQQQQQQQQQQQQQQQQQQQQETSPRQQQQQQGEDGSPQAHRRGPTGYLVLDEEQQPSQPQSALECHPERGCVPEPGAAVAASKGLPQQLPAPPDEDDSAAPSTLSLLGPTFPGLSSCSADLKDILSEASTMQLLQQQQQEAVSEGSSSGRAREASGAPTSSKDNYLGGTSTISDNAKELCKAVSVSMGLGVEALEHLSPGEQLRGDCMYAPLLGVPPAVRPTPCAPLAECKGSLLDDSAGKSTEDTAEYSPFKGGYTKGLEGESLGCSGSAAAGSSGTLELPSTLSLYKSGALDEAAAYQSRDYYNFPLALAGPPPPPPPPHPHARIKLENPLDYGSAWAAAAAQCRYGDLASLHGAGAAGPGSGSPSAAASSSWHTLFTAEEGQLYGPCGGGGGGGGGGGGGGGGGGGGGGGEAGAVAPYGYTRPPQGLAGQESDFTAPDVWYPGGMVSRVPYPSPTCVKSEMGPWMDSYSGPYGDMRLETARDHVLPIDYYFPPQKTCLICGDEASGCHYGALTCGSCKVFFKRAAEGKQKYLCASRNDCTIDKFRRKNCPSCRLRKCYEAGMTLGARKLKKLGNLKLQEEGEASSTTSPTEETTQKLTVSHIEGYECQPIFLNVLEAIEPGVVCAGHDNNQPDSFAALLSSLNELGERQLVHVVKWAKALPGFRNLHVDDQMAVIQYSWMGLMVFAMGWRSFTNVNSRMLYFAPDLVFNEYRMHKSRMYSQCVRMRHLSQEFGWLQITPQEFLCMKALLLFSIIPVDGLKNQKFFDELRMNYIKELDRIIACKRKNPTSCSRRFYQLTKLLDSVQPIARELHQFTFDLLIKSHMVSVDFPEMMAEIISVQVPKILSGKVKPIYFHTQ

Another assay addresses T3, HTR1A (Homo sapiens, UniProt P08908).
T3 sequence (P08908 1-422): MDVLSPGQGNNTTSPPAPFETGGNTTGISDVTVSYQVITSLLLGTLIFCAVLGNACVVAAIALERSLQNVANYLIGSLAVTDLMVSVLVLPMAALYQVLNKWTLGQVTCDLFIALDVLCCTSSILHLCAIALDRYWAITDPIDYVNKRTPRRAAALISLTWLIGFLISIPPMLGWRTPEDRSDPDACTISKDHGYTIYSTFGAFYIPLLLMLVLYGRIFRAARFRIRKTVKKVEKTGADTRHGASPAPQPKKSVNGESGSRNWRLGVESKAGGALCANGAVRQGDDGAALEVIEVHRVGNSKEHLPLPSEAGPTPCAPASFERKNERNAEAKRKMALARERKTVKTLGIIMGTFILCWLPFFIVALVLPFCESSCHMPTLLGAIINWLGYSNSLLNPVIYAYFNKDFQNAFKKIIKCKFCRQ

pEC50, pIC50: −log10 of the molar value.

As a reminder, the pIC50 is the IC50 on a negative log10 scale, so that one unit is a factor of ten. As a reminder, the pEC50 is the EC50 on a negative log10 scale, so that one unit is a factor of ten.

HTR2A, sequence (P28223 whole entry): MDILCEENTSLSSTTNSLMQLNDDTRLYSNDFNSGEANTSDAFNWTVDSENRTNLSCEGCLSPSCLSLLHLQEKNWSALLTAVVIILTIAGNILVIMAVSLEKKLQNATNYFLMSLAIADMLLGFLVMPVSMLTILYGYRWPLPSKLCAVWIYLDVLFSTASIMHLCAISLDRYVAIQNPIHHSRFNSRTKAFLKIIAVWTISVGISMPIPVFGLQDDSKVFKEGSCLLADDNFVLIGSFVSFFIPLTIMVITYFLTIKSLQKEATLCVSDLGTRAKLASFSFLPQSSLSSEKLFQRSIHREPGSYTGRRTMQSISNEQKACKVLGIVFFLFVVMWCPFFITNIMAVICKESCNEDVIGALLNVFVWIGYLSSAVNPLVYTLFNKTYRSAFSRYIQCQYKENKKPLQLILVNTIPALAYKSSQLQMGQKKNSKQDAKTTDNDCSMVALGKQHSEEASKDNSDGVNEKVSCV
OPRM1, sequence (P35372 whole entry): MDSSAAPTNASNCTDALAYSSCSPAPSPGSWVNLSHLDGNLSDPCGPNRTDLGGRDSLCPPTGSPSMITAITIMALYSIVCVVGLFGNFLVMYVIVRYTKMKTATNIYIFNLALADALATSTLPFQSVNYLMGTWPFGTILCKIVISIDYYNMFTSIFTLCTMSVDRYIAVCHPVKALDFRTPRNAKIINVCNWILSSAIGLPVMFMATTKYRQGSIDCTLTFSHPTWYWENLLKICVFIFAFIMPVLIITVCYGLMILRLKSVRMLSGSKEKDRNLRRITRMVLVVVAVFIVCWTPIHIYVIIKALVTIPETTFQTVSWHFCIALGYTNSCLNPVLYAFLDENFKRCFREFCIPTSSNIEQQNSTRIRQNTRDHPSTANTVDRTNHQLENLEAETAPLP
OPRD1, sequence (P41143 whole entry): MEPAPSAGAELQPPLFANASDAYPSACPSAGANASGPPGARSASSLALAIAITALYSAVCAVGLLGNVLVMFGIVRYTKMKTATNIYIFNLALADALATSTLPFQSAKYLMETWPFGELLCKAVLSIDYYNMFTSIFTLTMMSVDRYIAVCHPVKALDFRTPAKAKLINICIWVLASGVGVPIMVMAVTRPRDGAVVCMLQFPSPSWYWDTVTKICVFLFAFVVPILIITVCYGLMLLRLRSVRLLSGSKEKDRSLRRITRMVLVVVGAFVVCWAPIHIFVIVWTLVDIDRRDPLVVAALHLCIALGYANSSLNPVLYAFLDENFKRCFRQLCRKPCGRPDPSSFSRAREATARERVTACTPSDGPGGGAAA

As for `CC(=O)c1ccc2c(c1)[C@@H]1C=CC[C@@H]1[C@H](c1cc3c(cc1Br)OCO3)N2` (racemic) [LNS8801, 1-[(3aS,4R,9bR)-4-(6-bromo-1,3-benzodioxol-5-yl)-3a,4,5,9b-tetrahydro-3H-cyclopenta[c]quinolin-8-yl] ethanone], the values for the pIC50 at OPRM1 and against HTR2A were 5.46 and 5.09, respectively. This compound gave a pEC50 on OPRD1 of 6.06.
On to `CC(=O)c1ccc2c(c1)C1C=CCC1C(c1cc3c(cc1Br)OCO3)N2` (racemic) [LNS8812], for which the results for the pIC50 on ADRA2A, at androgen receptor (AR) and against HTR1A were 5.70, 5.32 and 5.70, respectively.

The record behind these values is PMC11969138, “LNS8801: An Enantiomerically Pure Agonist of the G Protein–Coupled Estrogen Receptor Suitable for Clinical Development” (Cancer Research Communications, 2025).
